The test system of test [1] is squalene synthase (rat liver microsomal protein). Put plainly: Inhibition of Squalene synthase (formation of squalene from tritiated farnesyl pyrophosphate). The note with it: at 2.5 μM. The test is classed as biochemical. As for the experimental part:
(a) Inhibition of Squalene synthase
In this test, the ability of a compound to prevent the formation of squalene from a radioactive substrate (tritiated farnesyl pyrophosphate) is assessed.
The test compound is incubated at a concentration of 25 micromolar in 200 μl of a buffered solution containing potassium phosphate (50 mM), MgCl2 (4.95 mM), KF (9.9 mM), NADPH (0.9 mM) and rat liver microsomal protein (20 μg). Rat liver microsomes are prepared by the method described in published European Patent Application No. 324,421 and stored in liquid nitrogen prior to assay. Assay vials are kept at 37° C. throughout the incubation.
The reaction is started with the addition of the substrate (1-[^3 H]-farnesyl pyrophosphate), final concentration 20 μM, and stopped after 15 minutes reaction time with the addition of 50 μl of 4% KOH. The reaction products are separated from unreacted substrate after application to a C-18 octadecyl 1 ccBond column (Analytichem Int product No. 617101). An aqueous fraction is eluted with 250 μl of 0.1M KOH. Squalene is then eluted with 1.0 ml 10% ethylacetate in hexane and radioactivity determined. The difference in radioactivity in the presence and absence of the test compound is used to determine the level of inhibition. […] The IC50 can then be determined from a plot of percentage inhibition against concentration of test compound.

The test system of test [2] is de novo hepatic cholesterol synthesis from 14C-acetate. Put plainly: Acute rat cholesterol synthesis assay. In kind it is in vivo. The note with it: inhibition of cholesterol synthesis. As for the experimental part: (b) Acute rat cholesterol synthesis assay.
This is an acute in vivo test in the rat to measure de novo hepatic cholesterol synthesis from exogenously administered ^14 C-acetate.
Female rats (35-55 g) are housed in reverse lighting conditions (red light from 0200 h-1400 h) for a period of about 2 weeks prior to test. Animals are allowed free access to chow and drinking water throughout this period. At test, animals should weigh 125-150 g.
Test compounds may be administered by oral gavage, dissolved or suspended in 0.5% polysorbate, or by ip or iv dosing. Control animals receive vehicle alone. After 1 hour the rats are injected ip with 25 μCi [2-^14 C]-acetate (NEN DUPONT. specific activity, 45-60 mCi/mmol NEC-085H, or AHERSHAM specific activity, 50-60 mCi/mmol CFA 14) in a volume of 0.25 ml saline (100 μCi/ml). After a further hour, rats are terminally anaesthetised with halothane and a blood sample obtained from the abdominal vena cava.
1 ml of plasma is lyophilised and then saponified in 2 ml ethanolic KOH (1 part 33% KOH, 9 parts ethanol) at 75° C. for 2 hours. After addition of an equal quantity of water, non-saponifiable lipids are extracted with two 5 ml volumes of hexane. The hexane extracts are evaporated to dryness and the residues dissolved in ethanol to determine cholesterol specific radioactivity. ED50 values can be determined in the standard way.

`COCCOc1cc(C)c(C#CC2(O)CN3CCC2CC3)c(C)c1` (centres unmarked) [Example 16]: the “inhibition of squalene synthase” value in test [1] is on record as “about 80%”. This molecule came in with an ED50 in test [2] of approximately 5.1 mg/kg.

A word on the ED50: it is the dose at which the effect has come halfway, by size or by number of responders. A higher ED50 goes with a need for a large dose.

Source of the values: patent US5919793A, “Heterocyclic derivatives” (Zeneca Limited, priority 1993, dated 1999).
